Columns and labels:
[1] = tested on: SW480 human colorectal cell line; assay: Tumor growth inhibition, SW480 xenograft; format: in vivo; settings: SW480 in mice, oral 8 mg/kg, (Mon, Wed, Fri)x5; p <0.0001
Description: (§1) To evaluate in vivo efficacy and effect of 4,4,4-Trifluoro-N-[(1S)-2-[[(7S)-5-(2-hydroxyethyl)-6-oxo-7H-pyrido[2,3-d][3]benzazepin-7-yl]amino]-1-methyl-2-oxo-ethyl]butanamide on inhibition of Notch processing pharmacodynamics (PD), several cell lines- and patient-derived xenograft models are used. A2780 is a human ovarian cell line (Sigma-Aldrich, No. 93112519); SW480 is a human colorectal cell line (ATCC No. CCL-228); HCT 116 is a human colorectal cell line (ATCC No. CCL-247); U-87 MG is a human glioblastoma cell line (ATCC No. HTB-14); A375 is a human malignant melanoma cell line (ATCC No. CRL-1619); K-562 is a human chronic myelogenous leukemia (CML) cell line characterized by the presence of a fusion transcript comprised of the Bcr and Abl1 genes (ATCC No. CCL-243); Jurkat; HEL 92.1.7 is a human erythroleukemia cell line (ATCC No. TIB-180). […] Tumor growth and body weight are monitored over time to evaluate efficacy and signs of toxicity. Bidimensional measurements of tumors are performed twice a week and tumor volumes are calculated based on the following formula: (Tumor Volume)=[(L)×(W2)×(Π/6)] where L is mid-axis length and W is mid-axis width. […] The log volume data are analyzed with a two-way repeated measures analysis of variance by time and treatment using the MIXED™ procedures in SAS™ software (version 8.2). […]

[2] = tested on: A375 human malignant melanoma cell line; assay: Tumor growth inhibition, A-375 xenograft; format: in vivo; settings: A-375 in mice, oral 8 mg/kg, (Mon, Wed, Fri)x4; p NS
Description: as §1

[3] = tested on: N1ICD (cleaved Notch1); assay: N1ICD analysis (ELISA) in xenograft tumors; format: in vivo, human; settings: for % N1ICD Inhibition: 10 mg/kg (Q2Dx7), 11-days OFF
Description: To evaluate in vivo efficacy and effect of 4,4,4-Trifluoro-N-[(1S)-2-[[(7S)-5-(2-hydroxyethyl)-6-oxo-7H-pyrido[2,3-d][3]benzazepin-7-yl]amino]-1-methyl-2-oxo-ethyl]butanamide on inhibition of Notch processing pharmacodynamics (PD), several cell lines- and patient-derived xenograft models are used. A2780 is a human ovarian cell line (Sigma-Aldrich, No. 93112519); SW480 is a human colorectal cell line (ATCC No. CCL-228); HCT 116 is a human colorectal cell line (ATCC No. CCL-247); U-87 MG is a human glioblastoma cell line (ATCC No. HTB-14); A375 is a human malignant melanoma cell line (ATCC No. CRL-1619); K-562 is a human chronic myelogenous leukemia (CML) cell line characterized by the presence of a fusion transcript comprised of the Bcr and Abl1 genes (ATCC No. CCL-243); Jurkat; HEL 92.1.7 is a human erythroleukemia cell line (ATCC No. TIB-180). Each of the cell lines are obtained from the American Type Culture Collection (ATCC) at the ATCC number stated, except the A2780 cell line which is obtained from Sigma-Aldrich at the stated catalog number. The cells are grown in their respective, recommended culture media at 37° C. in 5% CO2 with humidity in the atmosphere. A2780 (2×10^6), SW480 (6×10^6), HCT 116 (6×10^6), U-87 MG (6×10^6), and A-375 (10×10^6) cells in a 1:1 matrigel mix (0.2 mL volume) are implanted by subcutaneous injection in the hind leg of 6-8 weeks of age athymic nude female mice (Harlan Laboratories). K-562 (6×10^6) cells in a 1:1 matrigel mix (0.2 mL volume) are implanted by subcutaneous injection in the hind leg of 6-8 weeks of age CD1 nμ/nμ female mice (Charles River Laboratories). HEL 92.1.7 (7×10^6) in a 1:1 matrigel mix (0.2 mL volume) are implanted by subcutaneous injection in the hind leg of 6-8 weeks of age CB17 severely combined immune deficient female mice (Taconic Farms). Patient-derived tumors are minced into 1-2 mm pieces and mixed with matrigel (1:1) in 0.2 ml volume and implanted by subcutaneous injection in the hind leg of 6-8 weeks of age athymic nude female mice (Harlan Laboratories). Patients-derived tumor models include: human colon carcinoma (EL2144), human triple negative invasive ductal breast carcinoma (EL1997), human colon carcinoma (EL1989, EL 1986), and human glioblastoma (EL 2056) with samples obtained after patient consent and hospital approval from IU Health, Methodist Hospital, Indianapolis, Ind., USA 46206. A total of 7 to 10 mice are used for each group. Just before implantation for A2780, SW480, HEL 92.1.7, A-375, K-562, and patient-derived tumor models, animals are irradiated (450 Total Body Irradiation). Mice are fed ad libitum on normal chow. Treatment is initiated with oral administration (gavage) of compound or vehicle (1% Na-CMC in 0.25% Tween®-80) in 0.2 mL volume when tumor size reached to 150±50 mm^3. At designated time points following treatment, animals are sacrificed by CO2 asphyxiation and cervical dislocation. Tumors are removed and used for PD response analysis. Tumor growth and body weight are monitored over time to evaluate efficacy and signs of toxicity. Bidimensional measurements of tumors are performed twice a week and tumor volumes are calculated based on the following formula: (Tumor Volume)=[(L)×(W2)×(Π/6)] where L is mid-axis length and W is mid-axis width. Tumor volume data are transformed to a log scale to equalize variance across time and treatment groups. The log volume data are analyzed with a two-way repeated measures analysis of variance by time and treatment using the MIXED™ procedures in SAS™ software (version 8.2). The correlation model for the repeated measures is spatial power. Treated groups are compared to the control group at each time point. The MIXED™ procedure is also used separately for each treatment group to calculate adjusted means and standard errors at each time point. Both analyses account for the autocorrelation within each animal and the loss of data that occurs when animals with large tumors are removed from the study early. […]

[4] = Homo sapiens, A2780, 4 h, A2780 tumors 4 hours after last dose, Q2Dx13, p <0.0001

C[C@H](NC(=O)CCC(F)(F)F)C(=O)N[C@@H]1C(=O)N(CCO)c2ncccc2-c2ccccc21 [Compound 1, 4,4,4-trifluoro-N-[(1S)-2-[[(7S)-5-(2-hydroxyethyl)-6-oxo-7H-pyrido[2,3-d][3]benzazepin-7-yl]amino]-1-methyl-2-oxo-ethyl]butanamide]
% TGI [1]: 61.00 (<0.0001) %
% TGI [2]: 28.47 (NS) %
% N1ICD Inhibition ([3]; EL1989 tumors 4 hours after last dose, 8 mg/kg (Mon, Wed, Fri)x3, p <0.0001): 79.2 (<0.0001) %
% N1ICD Inhibition ([3]; EL1997 tumors 4 hours after last dose, 8 mg/kg (Mon, Wed, Fri)x4, p <0.0001): 67.9 (<0.0001) %
inhibition at 8 mg/kg ([3]; Homo sapiens, 4 h, EL1986 tumors 4 hours after last dose, (Mon, Wed, Fri)x5, p <0.0001): 84.9%
inhibition at 8 mg/kg ([3]; Homo sapiens, 4 h, EL2056 tumors 4 hours after last dose, (Mon, Wed, Fri)x5, p <0.0001): 83.5%
inhibition at 1.5 mg/kg ([3]; Homo sapiens, A2780, 4 h, A2780 tumors 4 hours after last dose, 1.5 mg/kg, QDx26, p <0.0001): 59%
inhibition at 3 mg/kg ([3]; Homo sapiens, A2780, 4 h, A2780 tumors 4 hours after last dose, (BID)QDx7 + (BID)Q2Dx7, p 0.0004): 50.7%
inhibition at 3 mg/kg [3, 4]: 58.6%
inhibition at 3 mg/kg ([3]; Homo sapiens, A2780, 4 h, A2780 tumors 4 hours after last dose, QDx21, p <0.0001): 62.8%
inhibition at 6 mg/kg ([3]; Homo sapiens, A2780, 4 h, A2780 tumors 4 hours after last dose, 6 mg/kg, Q2Dx13, p <0.0001): 60.7%
inhibition at 7 mg/kg ([3]; Homo sapiens, A2780, 4 h, A2780 tumors 4 hours after last dose, 7 mg/kg, Q2Dx13, p <0.0001): 65.9%
inhibition at 8 mg/kg [3, 4]: 71.7%
inhibition at 10 mg/kg ([3]; Homo sapiens, A2780, 4 h, A2780 tumors 4 hours after last dose, Q2Dx11, p <0.0001): 68.5%
inhibition at 10 mg/kg [3, 4]: 74.8%
inhibition at 10 mg/kg ([3]; Homo sapiens, A2780, 4 h, A2780 tumors 4 hours after last dose, Q3Dx8, p <0.0001): 55.3%
inhibition at 8 mg/kg ([3]; Homo sapiens, A-375, 4 h, A-375 tumors 4 hours after last dose, (Mon, Wed, Fri)x4, p <0.0001): 77.5%
inhibition at 8 mg/kg ([3]; Homo sapiens, HCT-116, 4 h, HCT 116 tumors 4 hours after last dose, (Mon, Wed, Fri)x4, p =0.0005): 73%
inhibition at 8 mg/kg ([3]; Homo sapiens, HEL 92.1.7, 4 h, HEL 92.1.7 tumors 4 hours after last dose, Q2dx14, p <0.0001): 56.7%
inhibition at 8 mg/kg ([3]; Homo sapiens, K562, 4 h, K-562 tumors 4 hours after last dose, (Mon, Wed, Fri)x4, p <0.0001): 47.6%
inhibition at 8 mg/kg ([3]; Homo sapiens, SW480, 4 h, SW480 tumors 4 hours after last dose, (Mon, Wed, Fri)x5, p =0.0002): 72.5%
inhibition at 8 mg/kg ([3]; Homo sapiens, U-87 MG, 4 h, U-87 MG tumors 4 hours after last dose, (Mon, Wed, Fri)x4, p <0.0001): 87.8%
